The structures appear in SMILES notation.

These results are taken from ChEMBL document CHEMBL2074358, “Differential gene expression of organic anion transporters in male and female rats” (Biochem Biophys Res Commun, 2002).

The target of data set [1] is T1, Organic anion transporter 3 (Rattus norvegicus, UniProt Q9R1U7).
T1 sequence (Q9R1U7 whole entry): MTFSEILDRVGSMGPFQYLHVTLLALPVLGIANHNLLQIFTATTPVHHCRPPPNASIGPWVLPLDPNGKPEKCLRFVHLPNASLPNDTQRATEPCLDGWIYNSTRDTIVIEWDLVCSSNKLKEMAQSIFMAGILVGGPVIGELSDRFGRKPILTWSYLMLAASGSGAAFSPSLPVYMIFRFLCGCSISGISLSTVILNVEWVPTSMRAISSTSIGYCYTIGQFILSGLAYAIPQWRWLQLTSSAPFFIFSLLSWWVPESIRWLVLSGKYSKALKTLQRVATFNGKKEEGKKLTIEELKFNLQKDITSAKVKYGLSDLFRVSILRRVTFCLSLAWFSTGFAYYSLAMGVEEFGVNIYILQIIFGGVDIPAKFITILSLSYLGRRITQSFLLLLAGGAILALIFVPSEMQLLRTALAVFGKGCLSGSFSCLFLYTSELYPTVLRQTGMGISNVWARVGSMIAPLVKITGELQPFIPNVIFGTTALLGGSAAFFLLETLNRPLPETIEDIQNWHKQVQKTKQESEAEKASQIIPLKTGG
The data set can be described thus: (§1) TP_TRANSPORTER: Northern blot in vivo, kidney of Wistar rat. In kind it is functional, organism-based.

The target in data set [2] is T2, Solute carrier family 22 member 7 (Rattus norvegicus, UniProt Q5RLM2).
T2 sequence (Q5RLM2 whole entry): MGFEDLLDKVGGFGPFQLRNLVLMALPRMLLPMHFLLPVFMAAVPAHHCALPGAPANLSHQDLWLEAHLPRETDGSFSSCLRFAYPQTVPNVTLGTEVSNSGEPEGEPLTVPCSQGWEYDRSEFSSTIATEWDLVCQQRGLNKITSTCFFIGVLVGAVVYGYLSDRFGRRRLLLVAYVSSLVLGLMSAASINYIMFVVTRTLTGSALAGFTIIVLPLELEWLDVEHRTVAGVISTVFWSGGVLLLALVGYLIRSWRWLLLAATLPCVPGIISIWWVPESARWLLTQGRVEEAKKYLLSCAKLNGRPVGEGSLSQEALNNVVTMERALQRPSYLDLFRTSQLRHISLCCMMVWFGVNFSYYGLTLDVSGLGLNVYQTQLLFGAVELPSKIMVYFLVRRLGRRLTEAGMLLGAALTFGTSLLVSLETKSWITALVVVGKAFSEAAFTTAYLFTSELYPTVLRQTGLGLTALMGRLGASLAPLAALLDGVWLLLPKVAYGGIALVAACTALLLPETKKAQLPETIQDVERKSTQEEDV
The description is as §1. In kind it is functional, organism-based.

As for `C[C@]12CC[C@H]3[C@@H](CCC4=CC(=O)CC[C@@]43C)[C@@H]1CC[C@@H]2O` [TESTOSTERONE], the Activity entry was “inducer [+]” in data set [1] and “inducer [Decrease]” in data set [2].
